According to patent US10759790B2, “Heterocyclic constrained tricyclic sulfonamides as anti-cancer agents” (ICAHN SCHOOL OF MEDICINE AT MOUNT SINAI, priority 2015, dated 2020):
pIC50: −log10 of the molar value. Read-outs that look alike come from different tables or passages of the source.

Tested on: H1650 lung cancer cells
Assay: Cell viability assay (MTT, IC50 determination)
Format: cell-based
Conditions: for pIC50: Homo sapiens, read-out: H1650 cell viability IC50
Procedure: Cell viability assays were performed according to Denizot, F. and R. Lang, Journal of Immunological Methods, 1986. 89(22): p. 271-277. H1650 lung cancer cells were plated at 150,000 cells per well in a 12 well plate. Twenty-four hours after plating, cells were treated as described with increasing concentrations of drug and control. Forty-eight hours after drug treatment, cells were treated with 100 μL of 3-(4,5-Dimethylthiazol-2-yl)-2,5-diphenyltetrazolium bromide (MTT) and incubated for 2 hours at 37 C. The MTT solution was subsequently replaced with 300 μL of n-propyl alcohol and re-aliquoted to a 96 well plate. Spectrophotometric analysis of each solution was performed using a 96 well plate reader at 600 nm in triplicate.

[1] = NCI-H1650, H1650 lung cancer cells, MTT, 48 hours after drug treatment

Row | Structure (SMILES) | pIC50 [1] | also measured
1 | COC(=O)N1C[C@H](NS(=O)(=O)c2ccc(OC(F)(F)F)cc2)[C@@H](O)[C@H](N2c3ccccc3Oc3ccccc32)C1 [Example 20b, (3R,4S,5S)-methyl 4-hydroxy-3-(10H-phenoxazin-10-yl)-5-(4-(trifluoromethoxy)phenylsulfonamido)piperidine-1-carboxylate] |  | pIC50 (NCI-H1650, 48 h): 5.30
2 | CC(=O)N1CC(NS(=O)(=O)c2ccc(OC(F)(F)F)cc2)[C@H](O)C(N2c3ccccc3Oc3ccccc32)C1 (mixture of isomers) [Example 18, Rac-N-((3R,4R,5S)-1-acetyl-4-hydroxy-5-(10H-phenoxazin-10-yl)piperidin-3-yl)-4-(trifluoromethoxy)benzenesulfonamide] | 4.70 | 
3 | CC(C)(C)OC(=O)N1CC(N2c3ccccc3Oc3ccccc32)[C@@H](O)[C@H](NS(=O)(=O)c2ccc(OC(F)(F)F)cc2)C1 (mixture of isomers) [Example 16, Rac-(3S,4R,5R)-tert-butyl 4-hydroxy-3-(10H-phenoxazin-10-yl)-5-(4-(trifluoromethoxy)phenylsulfonamido)piperidine-1-carboxylate] | 5.00 | 
4 | O=S(=O)(N[C@@H]1COC[C@H](N2c3ccccc3Oc3ccc(F)cc32)[C@H]1O)c1ccc(OC(F)(F)F)cc1 [Example 7, N-((3R,4R,5S)-5-(2-fluoro-10H-phenoxazin-10-yl)-4-hydroxytetrahydro-2H-pyran-3-yl)-4-(trifluoromethoxy)benzenesulfonamide] | 4.82 | 
5 | O=S(=O)(N[C@@H]1CNC[C@H](n2c3ccc(Cl)cc3c3cc(Cl)ccc32)[C@H]1O)c1ccc(OC(F)(F)F)cc1 [Example 44] | 5.00 | 
6 | O=S(=O)(N[C@@H]1COC[C@H](N2c3ccccc3Oc3ccccc32)[C@H]1O)c1ccc(Cl)s1 [Example 62, 5-chloro-N-((3R,4R,5S)-4-hydroxy-5-(10H-phenoxazin-10-yl)tetrahydro-2H-pyran-3-yl)thiophene-2-sulfonamide] | 4.82 | 
7 | Cc1ccc2c(c1)c1cc(C)ccc1n2[C@H]1COC[C@@H](NS(=O)(=O)c2ccc(OC(F)(F)F)cc2)[C@@H]1O [Example 51, N-((3R,4R,5S)-5-(3,6-dimethyl-9H-carbazol-9-yl)-4-hydroxytetrahydro-2H-pyran-3-yl)-4-(trifluoromethoxy)benzenesulfonamide] | 5.30 | 
8 | CC(C)(C)OC(=O)N1C[C@@H](NS(=O)(=O)c2ccc(OC(F)(F)F)cc2)[C@H](O)[C@@H](N2c3ccc(C(F)(F)F)cc3Oc3cc(C(F)(F)F)ccc32)C1 [Example 57, (3S,4R,5R)-tert-butyl 3-(3,7-bis(trifluoromethyl)-10H-phenoxazin-10-yl)-4-hydroxy-5-(4-(trifluoromethoxy)phenylsulfonamido)piperidine-1-carboxylate] | 5.30 | 
9 | Nc1ccc(S(=O)(=O)N[C@@H]2COC[C@H](N3c4ccccc4Oc4ccccc43)[C@H]2O)cc1 [Example 67, 4-amino-N-((3R,4R,5S)-4-hydroxy-5-(10H-phenoxazin-10-yl)tetrahydro-2H-pyran-3-yl)benzenesulfonamide] |  | H1650 cell viability, % at 40 uM (at 40 uM, H1650 lung cancer cells, MTT, 48 hours): 56% at 40 uM
10 | CN1C[C@H](NS(=O)(=O)c2ccc(OC(F)(F)F)cc2)[C@@H](O)[C@H](N2c3ccccc3Oc3ccccc32)C1 [Example 19b, N-((3S,4S,5R)-4-hydroxy-1-methyl-5-(10H-phenoxazin-10-yl)piperidin-3-yl)-4-(trifluoromethoxy)benzenesulfonamide] | 4.82 | 

Further lines, with some results ahead:

Row | pIC50 [1] | Structure (SMILES) | also measured
11 | 5.00 | O=S(=O)(N[C@H]1CNC[C@@H](n2c3ccccc3c3ccccc32)[C@@H]1O)c1ccc(OC(F)(F)F)cc1 [Example 41b, N-((3S,4S,5R)-5-(9H-carbazol-9-yl)-4-hydroxypiperidin-3-yl)-4-(trifluoromethoxy)benzenesulfonamide] | 
12 | 5.00 | O=S(=O)(N[C@@H]1CNC[C@H](n2c3ccccc3c3ccccc32)[C@H]1O)c1ccc(OC(F)(F)F)cc1 [Example 41a, N-((3R,4R,5S)-5-(9H-carbazol-9-yl)-4-hydroxypiperidin-3-yl)-4-(trifluoromethoxy)benzenesulfonamide] | 
